Source: patent US7319000B1, “Compositions and methods for eliciting immune or anti-infective responses” (priority 1992, dated 2008)

What was measured:
BALB/c mice = assay: Anti-peptide antibody response (ELISA) in BALB/c mice immunized with peptide multimers; assay type: in vivo; parameters: key to Antipeptide Antibody Reactivity to Analogous Peptide: −: cpm values are corrected and categorized according to unrelated antigen response in vitro.; •: Not determined.; +: cpm values are corrected and categorized according to unrelated antigen response in vitro.; ++: cpm values are corrected and categorized according to unrelated antigen response in vitro.; +++: cpm values are corrected and categorized according to unrelated antigen response in vitro.; ++++: cpm values are corrected and categorized according to unrelated antigen response in vitro; settings: for Antipeptide Antibody Reactivity to Analogous Peptide: antibody raised in Balb/C mice, ELISA end point; for anti-peptide antibody response (in words): high molecular weight forms of the peptides; for anti-peptide antibody production (in words): disulfide (di-Cys) polymeric form
[1] = test system: PLN cells from A SW × Balb/c F1 mice; assay: In vitro proliferation (3H-TdR) of PLN cells from immunized A.SW x BALB/c F1 mice; assay type: in vivo, A.SWXBALB/C F1 mice; parameters: key: −: cpm values are corrected and categorized according to unrelated antigen response in vitro.; •: Not determined.; +: cpm values are corrected and categorized according to unrelated antigen response in vitro.; ++: cpm values are corrected and categorized according to unrelated antigen response in vitro.; +++: cpm values are corrected and categorized according to unrelated antigen response in vitro.; ++++: cpm values are corrected and categorized according to unrelated antigen response in vitro; settings: for In Vitro Proliferation of PLN Cells from A SW × Balb/c F1, GP 160: in vitro antigen: GP 160; for In Vitro Proliferation of PLN Cells from A SW × Balb/c F1, Analogous Peptide: in vitro antigen: analogous peptide
[2] = test system: PLN cells from B6C3F1 mice; assay: In vitro proliferation (3H-TdR) of PLN cells from immunized B6C3 F1 mice; assay type: in vivo; parameters: key to In Vitro Proliferation of PLN Cells from B6C3F1, Analogous Peptide / In Vitro Proliferation of PLN Cells from B6C3F1, GP 160: −: cpm values are corrected and categorized according to unrelated antigen response in vitro.; •: Not determined.; +: cpm values are corrected and categorized according to unrelated antigen response in vitro.; ++: cpm values are corrected and categorized according to unrelated antigen response in vitro.; +++: cpm values are corrected and categorized according to unrelated antigen response in vitro.; ++++: cpm values are corrected and categorized according to unrelated antigen response in vitro; settings: for In Vitro Proliferation of PLN Cells from B6C3F1, GP 160: in vitro antigen: GP 160; for In Vitro Proliferation of PLN Cells from B6C3F1, Analogous Peptide: in vitro antigen: analogous peptide; for T cell response against the corresponding peptide and native HIV envelope protein gp160 (in words): disulfide (di-Cys) polymeric form
[3] = test system: PBMCs of immunized rhesus monkeys; assay: PBMC proliferation in rhesus monkeys immunized with a mixture of eight synthetic peptides; assay type: in vivo; parameters: key to T-cell Proliferation Responses: —: no detectable response; 1+: poor response; 2+: good response; 3+: better response; 4+: best response; 6+: best response; settings: for T-cell Proliferation Responses: PBMC response to the individual peptide or gp160; for PBMC proliferative responses (in words): three rhesus monkeys, monitored for 32 weeks
Experimental: In the present studies, three rhesus monkeys (#7, #23 and #283C) were immunized subcutaneously with 1 ml (0.1 ml/site) of a mixture of eight synthetic peptides (300·g of each peptide in sterile water) emulsified in complete Freund's adjuvant at 1:1 ratio. […] At 3 and 7 weeks after the primary immunization, two booster injections of the peptide mixture (150·g of each peptide in sterile water) emulsified in incomplete Freund's adjuvant were given to each monkey. Monkey #7 was terminated after […], for health reasons unrelated to the study, while the remaining two monkeys (#283C and #23) received one additional booster injection at 25 weeks.
At two week intervals following the first immunization of each animal, 15 ml of whole heparinized blood was collected by venous puncture. The peripheral blood mononuclear cells (PBMC) were separated by standard ficoll-hypaque centrifugation and employed in proliferation assays. The PBMCs were monitored every two weeks for a period of 32 weeks for proliferative responses against individual peptides and recombinant gp160.

Sequence	Antipeptide Antibody Reactivity to Analogous Peptide (BALB/c mice)	anti-peptide antibody response (in words) (BALB/c mice)	In Vitro Proliferation of PLN Cells from A SW × Balb/c F1, GP 160 [1]	In Vitro Proliferation of PLN Cells from A SW × Balb/c F1, Analogous Peptide [1]	In Vitro Proliferation of PLN Cells from B6C3F1, GP 160 [2]	In Vitro Proliferation of PLN Cells from B6C3F1, Analogous Peptide [2]	anti-peptide antibody production (in words) (BALB/c mice)	T-cell Proliferation Responses ([3]; Rhesus Monkey #7)	T-cell Proliferation Responses ([3]; Rhesus Monkey #23)	T-cell Proliferation Responses ([3]; Rhesus Monkey #283C)	PBMC proliferative responses (in words) [3]	T cell response against the corresponding peptide and native HIV envelope protein gp160 (in words) [2]
CRIKQIINMWQGVGKAMYA [Peptide 65, gp160 aa 417-435; polymeric form of the T-helper cell peptide]	++	high antibody titers	++	++++	+	++						
VLENVTENFNM [Peptide 108]	+	high antibody titers	−	+	+	+						
FLGFLGAAGSTMGAASLTLTVQANQ [Peptide 63, gp160 aa 519-543]	•	very low to negligible amounts of anti-peptide antibodies	++	++	++	++	do not stimulate anti-peptide antibody production	2+	4+	3+	good proliferative responses	strong T cell response
KKFNGTGPCTN [Peptide 115]	++	high antibody titers			+	++						
NNMVEQMHEDI [Peptide 109]	+++	high antibody titers	+	•	•	++						
LWDQSLKPCVKLT [Peptide 111]	−	very low to negligible amounts of anti-peptide antibodies	−	•	++	+		3+	2+	3+	good proliferative responses	
GTGPCTNVSTVQC [Peptide 116]	−	very low to negligible amounts of anti-peptide antibodies			−	++		1+	3+	2+	weak responses	
YLRDQQLLGIWGC [Peptide 61, gp160 aa 586-598]	−	very low to negligible amounts of anti-peptide antibodies	++	++	+	++	do not stimulate anti-peptide antibody production	—	3+	2+	Two of the three rhesus monkey-derived PBMC preparations also showed good proliferative responses	strong T cell response
SLKPCVKLTPLC [Peptide 112]	+	high antibody titers	+	+	+	+						
EQMHEDIISLWDQ [Peptide 110]	++++	high antibody titers	+	++	−	++						
